± gives the expanded uncertainty stated by the source.
Details: Liquid, Ebulliometric method (Recirculating still)

CCCCCCC [heptane]
vapor or sublimation pressure (365.65 K): 85 ± 1 kPa

Nc1ccccc1 [aniline]
vapor or sublimation pressure (450.25 K): 85 ± 1 kPa

CCCCO [butan-1-ol]
vapor or sublimation pressure (385.75 K): 85 ± 1 kPa

CO [methanol]
vapor or sublimation pressure (333.15 K): 85 ± 1 kPa

From the NIST ThermoML archive (doi:10.1021/acs.jced.7b00766)
